Values joined by “and” are separate entries in the source; they are usually repeats but may differ in a detail not shown here. Equal values may be shown once.
What was measured:
patients with tinnitus = conditions: cited from earlier work; for improvement of tinnitus: literature studies, only baclofen and caroverine double blind placebo-controlled
[1] = test system: patients with sensorineural tinnitus; experiment: randomized double-blind placebo-controlled clinical trial of acamprosate in tinnitus; type: in vivo, human; set-up: key to tinnitus scale, Mean / tinnitus scale, Median / tinnitus scale, Minimum / tinnitus scale, Maximum: tinnitus disturbance score, 0 to 10 (0.5 steps allowed)
Protocol: We selected 50 patients with tinnitus seen at OTOSUL, Otorrinolaringologia Sul-fluminense, Hospital São Camilo, Volta Redonda, R J, between October 2003 and October 2004. The inclusion criteria were tinnitus of sensorineural etiology, excluding the cases of external and middle ear disease and concomitant temporomandibular joint disorders. Pure tone audiometry, vocal audiometry and immittanciometry were performed in all patients, and we excluded those with conductive and mixed hearing loss and those with tympanogram curve types A-r, A-d, C and B. The audiometer used was AMPLAID A 177 PLUS, and the Immittanciometer was AMPLAID 750. We considered the thresholds up to 25 dB (normal hearing), 26 to 40 dB (mild loss), 41 to 70 dB (moderate loss), 71 to 90 dB (severe loss) and over 90 dB (profound loss).
The patients were classified according to the following parameters:
age, gender, continuous or intermittent tinnitus, uni or bilateral tinnitus, tinnitus characteristics (type of associated noise), time of tinnitus, associated symptoms (hypo and hyper loss, dizziness, ear fullness), probable tinnitus etiology, previous use of drugs to treat tinnitus, and baseline tinnitus score, given by the patient, ranging from 0 to 10, according to how much it disturbed the patient
Patients were asked to score tinnitus from 1 to 10 according to how much they were disturbed by it. We allowed 0.5 scores as well.
Patients were randomly divided into 2 groups of 25 patients: one group received acamprosate 333 mg, TID, and the other received placebo, TID, both groups for 90 days. All details of the study were clarified to the patients by the assistant physician and they all signed the informed consent term. It was a double-blind study approved by the Medical Ethical Committee, Hospital São Camilo.
Patients were analyzed at days 30, 60 and 90 after use of the drug and at each visit, the patient scored the tinnitus status, as well as reported side effects.
The statistical analysis was performed based on the following methods:
t Student test for independent samples or the Mann-Whitney test to compare quantitative data between the two groups (acamprosate and placebo) chi-square test or Fisher exact test to compare qualitative data, Friedman Variance Analysis to analyze the progression of tinnitus scale (quantitative data) throughout time (four assessments within 3 months) with the treatment with acamprosate and placebo.
The test of multiple comparisons based on the statistics of Friedman was applied to identify which moments were different. The test of multiple comparisons is a test complementary to Variance Analysis.
The criterion for determination of significance was adopted as 5%, that is, when p value of the statistical test was smaller or equal to 0.05, meaning there was statistical significance. The statistical analysis was processed by the statistical software SAS System.

GABA reuptake sites = conditions: rats; cited from earlier work
[2] = acamprosate 333 mg TID, 90 days, n=23

## NCC(CC(=O)O)c1ccc(Cl)cc1 (stereo not drawn) [baclofen]
Patients with tinnitus
  improvement of tinnitus: about 9.7%

## NC(=O)N1c2ccccc2C=Cc2ccccc21 [carbamazepine]
Patients with tinnitus; progressively increasing doses of 50 to 600 mg a day, defined by positive lidocaine test
  improvement, % of the cases of tinnitus: 50%

## c1cnc(N2CCN(Cc3ccc4c(c3)OCO4)CC2)nc1 [piribedil]
Patients with tinnitus
  improvement of tinnitus: 92.6%

## CCN(CC)CCn1c(=O)c(Cc2ccc(OC)cc2)nc2ccccc21 [caroverine]
Patients with tinnitus
  improvement of tinnitus: 63.3%

## CC(=O)NCCCS(=O)(=O)O [acamprosate, calcium acetyl-homotaurinate]
[1]; Baseline, n=23
  tinnitus scale, Maximum: 10
  tinnitus scale, Mean: 6.74
  tinnitus scale, Median: 7
  tinnitus scale, Minimum: 3
[1]; Score 30 d, 333 mg TID, n=23
  tinnitus scale, Maximum: 10
  tinnitus scale, Mean: 5.39
  tinnitus scale, Median: 5
  tinnitus scale, Minimum: 2
[1]; Score 60 d, 333 mg TID, n=23
  tinnitus scale, Maximum: 9
  tinnitus scale, Mean: 3.98
  tinnitus scale, Median: 4
  tinnitus scale, Minimum: 0
[1]; Score 90 d, 333 mg TID, n=23
  tinnitus scale, Maximum: 10
  tinnitus scale, Mean: 2.87
  tinnitus scale, Median: 2
  tinnitus scale, Minimum: 0
[1]; acamprosate 333 mg TID, 90 days
  worsening in score: no worsening in score has been observed
[1]; acamprosate 333 mg TID, 90 days, epigastralgia, choking
  severity of observed side effects: mild
[1]; [2]
  patients who did not report improvement: 13.04%
  patients who reported improvement below 50%: 39.13%
  subjects who reported that tinnitus had disappeared: 13.04%
[1]; acamprosate 333 mg TID, 90 days, placebo 20%, p=0.35
  incidence of side effects: 12%
[1]; acamprosate 333 mg TID, 90 days, subjective tinnitus score, placebo 11.1%, p=0.012
  proportion of improvement at 90 days equal or greater than 50%: 47.8% and 47.83%
[1]; acamprosate group of 25, placebo 7
  patients who interrupted treatment before the end of assessment: 2
[1]; acamprosate group, 50% of those who interrupted
  patients who suspended treatment owing to side effects: One
[1]; baseline, 30, 60, 90 days, 333 mg TID, p<0.0001
  variation of tinnitus scale as a result of time (Friedman Variance Analysis): significant decrease
GABA reuptake sites
  effect on GABA reuptake sites and GABA transmission: increases the number of reuptake sites of GABA

## O=C1CN=C(c2ccccc2Cl)c2cc([N+](=O)[O-])ccc2N1 [clonazepam]
Patients with tinnitus
  improvement of tinnitus: 32%

## COc1ccc(CN2CCNCC2)c(OC)c1OC [trimetazidine]
Patients with tinnitus
  improvement of tinnitus: 89%
